Assay results taken from US10800758B2, “Pyrimidine compound” (OTSUKA PHARMACEUTICAL CO., LTD., priority 2017, dated 2020).

Columns and labels:
Format in all cases: in vivo
[1] = system: DBA/2 mice; experiment: Audiogenic seizure model; conditions: Mus musculus; male and female DBA/2 mice, 30 mg/kg oral, auditory stimulation 1 hour after administration; read-out: Seizure suppression rate (%)
Protocol: The animal model used in this test is a phenotype model for partial seizure (including secondary generalized seizure) and generalized tonic-clonic seizure, and has high clinical predictability. This test was performed in accordance with the report of De Sarro et al (Br J Pharmacol. 1988 February; 93(2): 247-56. Anticonvulsant effects of some calcium entry blockers in DBA/2 mice. De Sarro G B, Meldrum B S, Nistico G.).
In this test example, the example compounds shown in Table 3 below were used as test compounds. The following compound (compound of Example 5 of WO 2004/009559), which is the most similar compound when the substituent position is taken into consideration, was used as a comparative example compound.
The test compounds were suspended in 5% gum arabic/distilled water (w/v), and administered by forced oral administration to male and female DBA/2 mice (Japan SLC, Inc., 3 weeks old, 8 per group) at a dose of 30 mg/kg. After one hour of the oral administration of the test compound, each mouse was placed in a transparent acrylic cylinder 30 cm high and 23 cm in diameter, and 30 seconds were allowed for habituation. Then, they were exposed to auditory stimulation (12.6 kHz, 100-110 dB) for 1 minute or until a tonic seizure occurred.
The seizure response was assessed using the following scale, 0: no seizure, 1: wild running, 2: clonic seizure, 3: tonic seizure and 4: respiratory arrest. The maximum response was recorded as the seizure severity score.
The seizure suppression rate for each compound administration group was calculated according to the following formula.

[2] = system: ICR mice; experiment: Maximal electroshock seizure (MES) model; conditions: Mus musculus; male ICR mice, 30 mg/kg oral, electrical stimulation (30 mA, 100 Hz, 0.2 second) 1 hour after administration; read-out: rate of seizure suppression (tonic hindlimb extension seizure)
Protocol: This test is performed to evaluate the anticonvulsant activity of the compound. The mouse model used in this test is a phenotype model of generalized tonic-clonic seizure and secondary generalized partial seizure. This test was performed in accordance with the report of AJ Hill et al (Br J Pharmacol. 2012 December; 167(8): 1629-42. Cannabidivarin is anticonvulsant in mouse and rat, Hill A J, et al.).
The test compound was suspended in 5% gum arabic/distilled water (w/v), and administered by forced oral administration to male ICR mice (Japan SLC, Inc., 5 to 6 weeks old, 8 per group) at a dose of 30 mg/kg. After one hour of the oral administration of the test compound, the mice were stimulated by an application of electrical current (30 mA, 100 Hz, 0.2 second) through auricular electrodes using an electroconvulsive device (UGO BASILE SRL). Then, the incidence of tonic hindlimb extension seizure was recorded. In this test, tonic hindlimb extension seizures were induced in all mice of the solvent administration group, but the rate of seizure suppression was 75% or more with the example compounds 1, 2, 3, 5, 8, 10, 12, 13, 14, 16, 18, 22, 26, 28, 30, 31, 38, 42, 47, 48 and 54, and the suppression rate was 50% or more with the example compounds 4, 6, 9, 11, 23, 41 and 45.

[3] = system: ICR mice; experiment: Subcutaneous pentylenetetrazole (scPTZ) model; conditions: Mus musculus; male ICR mice, 30 mg/kg oral, 85 mg/kg pentylenetetrazole s.c. after 1 hour, evaluated for 30 minutes; read-out: rate of suppression against clonic convulsions
Protocol: This test is performed to evaluate the anticonvulsant activity of the compound as in Test Example 2. Unlike the phenotype of Test Example 2, the animal model used in this test is a phenotype model of generalized absence seizure and myoclonic seizure.
The test compound was suspended in 5% gum arabic/distilled water (w/v), and administered by forced oral administration to male ICR mice (Japan SLC, Inc., 5 to 6 weeks old, 10 per group) at a dose of 30 mg/kg. After 1 hour, 85 mg/kg of pentylenetetrazole dissolved in saline was administered subcutaneously, and the occurrence of clonic convulsions was evaluated for 30 minutes.

Structure (SMILES) | inhibition in vivo at 30 mg/kg [1] [%] | responders at 30 mg/kg [2] [%] | responders at 30 mg/kg [3] [%]
O=C1CCN(c2ccccc2)C(=O)N1 [Comparative Example, reference compound] | 27 | – | –
O=C1CCN(c2cnc(Oc3ccccc3)nc2)C(=O)N1 [Example 1, 1-(2-Phenoxypyrimidin-5-yl)-5,6-dihydropyrimidine-2,4(1H,3H)-dione] | 100 | ≥ 75 | ≥ 75
O=C1CCN(c2cnc(Oc3ccccc3F)nc2)C(=O)N1 [Example 2, 1-[2-(2-Fluorophenoxy)pyrimidin-5-yl]-5,6-dihydropyrimidine-2,4(1H,3H)-dione] | 100 | ≥ 75 | ≥ 75
O=C1CCN(c2cnc(Oc3cccc(F)c3)nc2)C(=O)N1 [Example 3, 1-[2-(3-Fluorophenoxy)pyrimidin-5-yl]-5,6-dihydropyrimidine-2,4(1H,3H)-dione] | 100 | ≥ 75 | ≥ 75
O=c1ccn(-c2cnc(Oc3ccccc3)nc2)c(=O)[nH]1 [Example 4, 1-(2-Phenoxypyrimidin-5-yl)pyrimidine-2,4(1H,3H)-dione] | 100 | ≥ 50 | ≥ 75
CN1C(=O)CCN(c2cnc(Oc3cccc(F)c3)nc2)C1=O [Example 5, 1-[2-(3-Fluorophenoxy)pyrimidin-5-yl]-3-methyl-5,6-dihydropyrimidine-2,4(1H,3H)-dione] | 100 | ≥ 75 | ≥ 75
Cc1c(F)cccc1Oc1ncc(N2CCC(=O)NC2=O)cn1 [Example 6, 1-[2-(3-Fluoro-2-methylphenoxy)pyrimidin-5-yl]-5,6-dihydropyrimidine-2,4(1H,3H)-dione] | 89 | ≥ 50 | –
CCc1cccc(Oc2ncc(N3CCC(=O)NC3=O)cn2)c1 [Example 7, 1-[2-(3-Ethylphenoxy)pyrimidin-5-yl]-5,6-dihydropyrimidine-2,4(1H,3H)-dione] | 88 | – | –
O=C1CCN(c2cnc(Sc3ccccc3)nc2)C(=O)N1 [Example 8, 1-[2-(Phenylthio)pyrimidin-5-yl]-5,6-dihydropyrimidine-2,4(1H,3H)-dione] | 100 | ≥ 75 | –
O=C1CCN(c2cnc(Oc3cccc(C(F)(F)F)c3)nc2)C(=O)N1 [Example 9] | 94 | ≥ 50 | –
O=C1CCN(c2cnc(Oc3cccc(OC(F)(F)F)c3)nc2)C(=O)N1 [Example 10] | 86 | ≥ 75 | –
O=C1CCN(c2cnc(Oc3ccc(F)cc3)nc2)C(=O)N1 [Example 11] | 97 | ≥ 50 | ≥ 75
O=C1CCN(c2cnc(Oc3ccc(F)cc3F)nc2)C(=O)N1 [Example 12] | 96 | ≥ 75 | ≥ 50
O=C1CCN(c2cnc(Oc3c(F)cccc3F)nc2)C(=O)N1 [Example 13] | 100 | ≥ 75 | ≥ 75
O=C1CCN(c2cnc(Oc3cc(F)cc(F)c3)nc2)C(=O)N1 [Example 14] | 92 | ≥ 75 | ≥ 75
O=C1CCN(c2cnc(Oc3ccc(F)c(F)c3)nc2)C(=O)N1 [Example 15] | 83 | – | –
CC1CC(=O)NC(=O)N1c1cnc(Oc2ccccc2)nc1 (centres unmarked) [Example 16] | 100 | ≥ 75 | –
COc1nc(Oc2ccccc2)ncc1N1CCC(=O)NC1=O [Example 18] | 100 | ≥ 75 | –
COc1cccc(Oc2ncc(N3CCC(=O)NC3=O)cn2)c1 [Example 21] | 93 | – | –
Cc1cccc(Oc2ncc(N3CCC(=O)NC3=O)cn2)c1 [Example 22] | 100 | ≥ 75 | ≥ 75
O=C1CCN(c2cnc(Oc3cccc(SC(F)(F)F)c3)nc2)C(=O)N1 [Example 23] | 100 | ≥ 50 | ≥ 75

Structure (SMILES) | inhibition in vivo at 30 mg/kg [1] [%] | responders at 30 mg/kg [2] [%] | responders at 30 mg/kg [3] [%]
O=C1CCN(c2cnc(Oc3cccc(S(F)(F)(F)(F)F)c3)nc2)C(=O)N1 [Example 24] | 90 | – | –
[2H]C([2H])([2H])Oc1cccc(Oc2ncc(N3CCC(=O)NC3=O)cn2)c1 [Example 25] | 89 | – | –
O=C1CCN(c2cnc(Oc3cccc(Cl)c3)nc2)C(=O)N1 [Example 26] | 100 | ≥ 75 | ≥ 50
C#Cc1cccc(Oc2ncc(N3CCC(=O)NC3=O)cn2)c1 [Example 28] | 100 | ≥ 75 | ≥ 75
O=C1CCN(c2cnc(-c3ccccc3)nc2)C(=O)N1 [Example 30] | 97 | ≥ 75 | –
O=C1CCN(c2cnc(Sc3cccc(F)c3)nc2)C(=O)N1 [Example 31] | 79 | ≥ 75 | –
Cc1cc(C)cc(Oc2ncc(N3CCC(=O)NC3=O)cn2)c1 [Example 37] | 77 | – | –
Cc1ccc(F)cc1Oc1ncc(N2CCC(=O)NC2=O)cn1 [Example 38] | 100 | ≥ 75 | –
O=C1CCN(c2cnc(Oc3ccc(Cl)cc3)nc2)C(=O)N1 [Example 40] | 81 | – | –
O=c1ccn(-c2cnc(Oc3cccc(F)c3)nc2)c(=O)[nH]1 [Example 41] | 96 | ≥ 50 | ≥ 50
COc1nc(Oc2cccc(F)c2)ncc1N1CCC(=O)NC1=O [Example 42] | 96 | ≥ 75 | ≥ 50
O=C1CCN(c2cnc(Oc3cccc(Br)c3)nc2)C(=O)N1 [Example 44] | 85 | – | ≥ 50
O=C1CCN(c2cnc(Oc3cccc(-c4ccccc4)c3)nc2)C(=O)N1 [Example 45] | 92 | ≥ 50 | –
COc1nc(Oc2ccccc2F)ncc1N1CCC(=O)NC1=O [Example 47] | 87 | ≥ 75 | –
COc1nc(Oc2ccc(F)cc2)ncc1N1CCC(=O)NC1=O [Example 48] | 96 | ≥ 75 | –
C#Cc1ccc(Oc2ncc(N3CCC(=O)NC3=O)cn2)cc1 [Example 50] | 82 | – | –
COc1nc(Oc2c(F)cccc2F)ncc1N1CCC(=O)NC1=O [Example 52] | 93 | – | –
COc1nc(Oc2ccc(F)cc2F)ncc1N1CCC(=O)NC1=O [Example 53] | 83 | – | –
COc1nc(Oc2cc(F)cc(F)c2)ncc1N1CCC(=O)NC1=O [Example 54] | 93 | ≥ 75 | –
C[Si](C)(C)c1cccc(Oc2ncc(N3CCC(=O)NC3=O)cn2)c1 [Example 56] | 82 | – | ≥ 50
